Experimental data: patent EP0895778A2, “Cosmetic composition” (Ajinomoto Co., Inc., priority 1997, dated 1999)
Counter-ions that a name gives are not always drawn.

Key:
ocular mucous membranes = type: in vivo, New Zealand white rabbits; conditions: 0.1 ml aqueous solution dropped into eyelid bag, checked 24 hours after; four male rabbits
Experimental: (§1) The primary irritation of the skin and ocular mucous membranes by some test compounds mentioned below was checked according to the test methods mentioned below.
The lower eyelids of each of four male New Zealand white rabbits were formed into bags, into which was dropped 0.1 ml of an aqueous surfactant solution, and the upper and lower eyelids were lightly ligated. 24 hours after the dropping, the irritation of the ocular mucous membranes of each rabbit was checked according to the Draize's points mentioned below. The compound tested was evaluated on the basis of the following criteria.

skin = type: in vivo, New Zealand white rabbits; conditions: 0.3 ml of aqueous 1 % solution, patch 24 hours, observed 24 hours; four male rabbits
Experimental: as §1
A patch test plaster, into which 0.3 ml of an aqueous 1 % solution of a test compound had been infiltrated, was airtightly stuck on each of four male New Zealand white rabbits and kept as such for 24 hours. […] The compounds tested were evaluated on the basis of the following criteria.

Row | SMILES | Primary Mucous Membrane Irritation (ocular mucous membranes) | Primary Skin Irritation (skin)
1 | CCCCCCCCCCCCOCC(O)CNCCCC[C@H](N)C(=O)O (stereo partly drawn) [Compound of Production Example 5, Nε-(2-hydroxy-3-dodecyloxy)propyl-L-lysine hydrochloride] | Minor (Less than 10) | Minor (Less than 2)
2 | CCCCCCCCCCC(O)CN[C@@H](CCCNC(=N)N)C(=O)O.Cl (stereo partly drawn) [Compound of Production Example 7, N-(2-hydroxydodecyl)-L-arginine hydrochloride] | Minor (Less than 10) | Minor (Less than 2)
3 | CCCCCCCCCCCCCCCCCC[N+](C)(C)C.[Cl-] [Stearyltrimethylammonium Chloride, reference compound] | Moderate (20 to less than 50) | Heavy (4 or more)
